# Counter-ions that a name gives are not always drawn.
# Experiments:
# [1] = Thermo-Gravimetric Analysis (TGA), thermal stability; type: physicochemical; conditions: 10° C./min ramp; for thermally stable up to (TGA): nitrogen
# Protocol: TGA thermograms were obtained with a TA Instrument Discovery 550 in Al pans. The heating rate used was 10° C./min linear ramp from 25 to 400° C. with a nitrogen purging at a rate of 60 ml/min. TGA thermograms were analysed using TRIOS software.
# [2] = Dynamic Vapor Sorption (DVS) analysis of salts, with XRPD of the post-DVS sample; type: physicochemical; conditions: for sorption/desorption behaviour (reversibility, hysteresis): DVS isotherm; for deliquescence during DVS: high RH
# Protocol: XRPD diffractograms were acquired using Bruker D2 Phaser diffractometer equipped with LYNXEYE detector. Samples were prepared using a zero-background sample holder. The samples were scanned from 5 to 32° (2θ) using a step size of 0.02° and a time per step of 0.13 second whilst spinning the sample. Diffractograms were plotted using the EVA program from Bruker.
# DVS analyses were performed on TA Instrument DVS Q5000. Samples were added to a pre-tared metallised quartz crucible and run at 25° C. from 40% RH to 90% RH, down to zero and back to 40%. This cycle was repeated in increments of 10% RH.
# [3] = Polymorphism screen of hydrochloride salt (thermal cycling, evaporations), XRPD; type: physicochemical; conditions: for XRPD Result: lyophilised hydrochloride salt, thermally cycled between ambient and 40° C., three days
# Protocol: To render the material amorphous and thus remove seeds of the pattern 1 the material was rendered amorphous. To 2.605 g of the hydrochloride lot RPI-014-022 dioxane (55 ml) and water (5 ml) was added. The mixture was agitated gently and warmed to aid dissolution.
# Twenty five of the lyophilised samples were treated with solvent and thermally cycled between ambient and 40° C. with four hours spent under each condition. After three days and solids were isolated by centrifuge filtration and analysed by XRPD.
# Twelve samples of the lyophilised material were treated with a minimal volume (ca 0.5 ml) of warm solvent, syringe filtered through a 0.22 µm filter and added to a clean HPLC vial and allowed to evaporate at RT. The solvents used and XRPD results following evaporation are detailed in the Table below: […]
# [4] = Solubility assessments in four different media; type: physicochemical; conditions: 250 mg per vial; for Observation: 1 ml media at 37° C.
# Protocol: Solubility assessments of 5-MeO-DMT oxalate, hydrobromide fumarate and benzoate were performed in four different media: […]
# [5] = type: physicochemical; conditions: 40° C./75% RH, three days
# Protocol: Salt screening studies with 24 selected counter-ions were performed to determine if 5-MeO-DMT free base is amenable to salt formation. […] Salts were examined by XRPD, TGA, DSC, 1H NMR and some by DVS analyses. Short term physical stability was examined by storage of salts at 40° C./75% RH for three days.
# Physical stability stress tests were conducted on generated crystalline salts at controlled temperature and relative humidity. The powder samples were stored at 40° C./75% RH for three days. After this time samples were analysed by XRPD to see whether the physical state of salts changed during the storage.
smiles,measurement,setting,value
"COc1ccc2[nH]cc(CCN(C)C)c2c1 [Benzenesulfonate salt, 5-MeO-DMT benzenesulfonate]",thermally stable up to (TGA),[1],250 °C
same,total water (moisture) uptake between 0% RH and 90% RH,[2]; 25° C,approximately 21 % w/w
same,"sorption/desorption behaviour (reversibility, hysteresis)",[2]; 25° C,hysteresis between 40-80% RH
same,water uptake up to 60% RH,[2]; first sorption isotherm,1.2 % w/w
same,moisture absorption at 70% RH,[2]; first sorption isotherm,7 % w/w
same,moisture absorption at 80% RH,[2]; first sorption isotherm,14 % w/w
same,deliquescence during DVS,[2],begins to deliquesce
COc1ccc2[nH]cc(CCN(C)C)c2c1.Cl [DJP2202-007-02],XRPD Result,[3]; 1-Propanol,Pattern 1
COc1ccc2[nH]cc(CCN(C)C)c2c1.Cl [DJP2202-007-03],XRPD Result,[3]; 2-Butanol,Pattern 1
COc1ccc2[nH]cc(CCN(C)C)c2c1.Cl [DJP2202-007-05],XRPD Result,[3]; 2-Methyltetrahydrofuran,Pattern 1
COc1ccc2[nH]cc(CCN(C)C)c2c1.Cl [DJP2202-007-06],XRPD Result,[3]; 2-Propanol,Pattern 1
COc1ccc2[nH]cc(CCN(C)C)c2c1.Cl [DJP2202-007-07],XRPD Result,[3]; Acetone,Pattern 1
COc1ccc2[nH]cc(CCN(C)C)c2c1.Cl [DJP2202-007-08],XRPD Result,[3]; Acetonitrile,Pattern 1
COc1ccc2[nH]cc(CCN(C)C)c2c1.Cl [DJP2202-007-09],XRPD Result,[3]; Anisole,Pattern 1
COc1ccc2[nH]cc(CCN(C)C)c2c1.Cl [DJP2202-007-10],XRPD Result,[3]; Chlorobenzene,Pattern 1
COc1ccc2[nH]cc(CCN(C)C)c2c1.Cl [DJP2202-007-11],XRPD Result,[3]; Ethanol,Pattern 1
COc1ccc2[nH]cc(CCN(C)C)c2c1.Cl [DJP2202-007-12],XRPD Result,[3]; Ethyl acetate,Pattern 1
COc1ccc2[nH]cc(CCN(C)C)c2c1.Cl [DJP2202-007-13],XRPD Result,[3]; Isopropyl acetate (experiment 007-13),Pattern 1
COc1ccc2[nH]cc(CCN(C)C)c2c1.Cl [DJP2202-007-15],XRPD Result,[3]; Propyl acetate,Pattern 1
COc1ccc2[nH]cc(CCN(C)C)c2c1.Cl [DJP2202-007-16],XRPD Result,[3]; Methylethyl ketone,Pattern 2
COc1ccc2[nH]cc(CCN(C)C)c2c1.Cl [DJP2202-007-20],XRPD Result,[3]; iso-Propyl acetate (experiment 007-20),Pattern 1
COc1ccc2[nH]cc(CCN(C)C)c2c1.Cl [DJP2202-007-21],XRPD Result,[3]; 2-Me-1-PrOH,Pattern 1
COc1ccc2[nH]cc(CCN(C)C)c2c1.Cl [DJP2202-007-22],XRPD Result,[3]; Tetrahydrofuran,Pattern 1
"COc1ccc2[nH]cc(CCN(C)C)c2c1 [Fumarate salt, 5-MeO-DMT fumarate]",thermally stable up to (TGA),[1],150 °C
same,mass difference between 40% RH and 0% RH,[2]; salt produced during scale-up,~ 2.84%
same,solid form after DVS (XRPD post DVS),[2]; salt produced during scale-up,a change in crystalline form occurred
same,pH after addition of 1 ml media at 37° C.,[4]; SNF,5.14
same,Observation,[4]; SNF,Clear solution
same,pH after addition of 1 ml media at 37° C.,[4]; pH 1.2 buffer,5.24
same,Observation,[4]; pH 1.2 buffer,Clear solution
same,pH after addition of 1 ml media at 37° C.,[4]; pH 4.5 buffer,5.31
same,Observation,[4]; pH 4.5 buffer,Clear solution
same,pH after addition of 1 ml media at 37° C.,[4]; pH 6.8 buffer,5.79
same,Observation,[4]; pH 6.8 buffer,Clear solution
"COc1ccc2[nH]cc(CCN(C)C)c2c1.Cl [Hydrochloride pattern 2, 5-MeO-DMT hydrochloride]",onset of decomposition / mass loss (TGA),[1]; hydrochloride,around 256 °C
"COc1ccc2[nH]cc(CCN(C)C)c2c1.Cl [Hydrochloride pattern 3, 5-MeO-DMT hydrochloride]",onset of decomposition / mass loss (TGA),[1]; hydrochloride,around 260 °C
"COc1ccc2[nH]cc(CCN(C)C)c2c1 [Ketoglutarate salt, 5-MeO-DMT ketoglutarate]",water uptake at 40% RH,"[2]; first sorption isotherm, 40% RH",0.13 % w/w
same,moisture absorption at 80% RH,[2]; first sorption isotherm,2.55 % w/w
same,water uptake at 90% RH,"[2]; first sorption isotherm, 90% RH",28.14 % w/w
same,deliquescence during DVS,[2],deliquesce at high RH
"COc1ccc2[nH]cc(CCN(C)C)c2c1.O=C(O)CC(O)C(=O)O [Malate salt, 5-MeO-DMT malate]",thermally stable up to (TGA),[1],around 170 °C
same,crystalline form by XRPD after storage,[5],conversion to a “gum” material
"COc1ccc2[nH]cc(CCN(C)C)c2c1 [Phosphate salt, 5-MeO-DMT phosphate]",total reversible mass change between 0-90% RH,"[2]; Example 3 Pattern 1 batches, listed as 5-MeO-DMT Phosphate Pattern 1",0.3 wt. %
same,crystalline form by XRPD after storage,[5],did not undergo any transformation
"COc1ccc2[nH]cc(CCN(C)C)c2c1 [Saccharinate salt, 5-MeO-DMT saccharinate]",thermally stable up to (TGA),[1],200 °C
"COc1ccc2[nH]cc(CCN(C)C)c2c1 [Tosylate salt, 5-MeO-DMT tosylate]",total water (moisture) uptake between 0% RH and 90% RH,[2]; 25° C,approximately 1.9 % w/w
same,"sorption/desorption behaviour (reversibility, hysteresis)",[2]; 25° C,reversibly without hysteresis
same,hygroscopicity classification,"[2]; salt screen / scale-up batches, DVS at 25° C",slightly hygroscopic (Pharmaceuticals that pick up between 0.2% and 2.0% moisture at 80% RH are considered slightly hygroscopic)
same,solid form after DVS (XRPD post DVS),[2]; salt screen batches,did not undergo any solid-state changes
same,crystalline form by XRPD after storage,[5],identical XRPD pattern
"COc1ccc2[nH]cc(CCN(C)C)c2c1.O=C(O)c1ccccc1 [benzoate salt pattern 2, 5-MeO-DMT benzoate]",thermally stable up to (TGA),[1],~ 170 °C
"COc1ccc2[nH]cc(CCN(C)C)c2c1.O=C(O)c1ccccc1 [benzoate salt pattern 3, 5-MeO-DMT benzoate]",onset of decomposition / mass loss (TGA),[1],approximately 190 °C
"COc1ccc2[nH]cc(CCN(C)C)c2c1.O=C(O)c1ccccc1 [benzoate salt pattern 4, 5-MeO-DMT benzoate]",onset of decomposition / mass loss (TGA),[1],~ 190 °C
same,thermally stable up to (TGA),[1],~ 190 °C
"COc1ccc2[nH]cc(CCN(C)C)c2c1 [free base, 5-methoxy-N,N-dimethyltryptamine]",thermally stable up to (TGA),[1],150 °C
"COc1ccc2[nH]cc(CCN(C)C)c2c1 [glycolate salt, 5-MeO-DMT glycolate]",thermally stable up to (TGA),[1],around 155 °C
same,"total moisture uptake between 0% RH and 90% RH, 1st cycle","[2]; 25° C, 1st cycle",approximately 62 % w/w
same,"total moisture uptake between 0% RH and 90% RH, 2nd cycle","[2]; 25° C, 2nd cycle",~59 % w/w
same,"sorption/desorption behaviour (reversibility, hysteresis)",[2]; 25° C,hysteresis between 40-80% RH
same,water uptake up to 60% RH,[2]; first sorption isotherm,2.3 % w/w
same,moisture absorption at 70% RH,[2]; first sorption isotherm,11 % w/w
same,moisture absorption at 80% RH,[2]; first sorption isotherm,33 % w/w
same,deliquescence during DVS,[2],begins to deliquesce
"COc1ccc2[nH]cc(CCN(C)C)c2c1.Cl [hydrochloride salt, 5-MeO-DMT hydrochloride]",XRPD Results,"[3]; evaporation at RT of lyophilised material from 1-PrOH, DJP2202-011-02",Pattern 1
same,XRPD Results,"[3]; evaporation at RT of lyophilised material from EtOH, DJP2202-011-05",Pattern 1
same,XRPD Results,"[3]; evaporation at RT of lyophilised material from IPA, DJP2202-011-06",Pattern 1
same,XRPD Results,"[3]; evaporation at RT of lyophilised material from MEK, DJP2202-011-11",Pattern 1
same,XRPD Results,"[3]; evaporation at RT of lyophilised material from MeCN, DJP2202-011-12",Oil
same,thermally stable up to (TGA),[1],~ 235 °C

# Source: patent publication US20260209175A1, “PHARMACEUTICALLY ACCEPTABLE 5-METHOXY-N,N-DIMETHYL[…] AND COMPOSITIONS THEREOF” (priority 2022, published 2026)
